Source: patent US11801235B2, “Methods and compositions for delivery of biotin to mitochondria” (priority 2020, dated 2023)
Square brackets hold non-standard residues; d marks the D form. Peptide text beside a SMILES is read from it. * marks the point of attachment. Biotin = O=C1N[C@H]2[C@H](CS[C@H]2CCCCC(=O)*)N1; Dmt = Cc1cc(O)cc(C)c1C[C@H](N)C(=O)O

Experiments:
[1] = tested on: ARPE-19 human retinal pigment epithelial cells; test: Mitochondrial localization: co-localization with cytochrome c oxidase subunit 4 (COX4); assay type: cell-based; details: ARPE-19 cells, 1 uM, 2 hours, serum-free DMEM/F12
Method: Cells were fixed with 4% PFA at RT for 10 min and then permeabilized with 0.1% Triton X-100 at RT for 10 min. Cells were blocked with 2% BSA (bovine serum albumin) at RT for 30 min, and then incubated with primary antibody for cytochrome c oxidase subunit 4 (COX4), a major protein complex expressed on the inner mitochondrial membrane. The rabbit polyclonal COX4 antibody (Invitrogen PAS-29992, Waltham, MA) was used at 1:500 dilution in 2% BSA at 4° C. overnight.

[2] = tested on: ARPE-19 human retinal pigment epithelial cell monolayers; test: Cell proliferation at scratch edge (PCNA staining); assay type: cell-based; details: ARPE-19 cells, 10 nM, serum-free, 24 hours after scratch
Source text: (§1) Re-epithelialization of a wound area require proliferation of cells at the wound edge, which can be impaired in most wounds due to lack of blood flow to deliver nutrients and/or growth factor(s) that can be necessary for cell proliferation. Cell proliferation in the wound edge can be monitored by proliferating cell nuclear antigen (PCNA) staining. To mimic the microenvironment of wounds in vitro, serum-free medium was used for the scratch assay in cell cultures.
(§2) Proliferating cells were identified by immunostaining with antibody to proliferating cell nuclear antigen (PCNA) according to standard procedures as presented in IHC World. PCNA staining was performed using the same plate of cells after determination of scratch area. […] All cell nuclei stain blue with Hoechst, but nuclei of proliferating cells stain red. The number of proliferating cells per field was quantified by the intensity of red nuclear stain and normalized to intensity of blue nuclear stain (determined by Nikon NIS-Elements Imaging Software).

HK-2 cells [3] = test: Cell viability (Alamar Blue) after 11 days of serum starvation; assay type: cell-based, human; details: 10 nM, vs serum-free control
Method: In the first model, HK-2 cells were cultured in 96-well plates in serum-free DMEM alone or in serum-free DMEM containing 10 nM of SPN11 or SPN12 for 11 days. Culture medium was replaced every 3 days.
(§3) Cell viability was measured using the Alamar Blue Cell Proliferation Assay (Bio-Rad), according to manufacturer's protocol. Alamar Blue uses resazurin to measure reducing power of living cells. The weakly fluorescent resazurin is reduced to the highly fluorescent resorufin when reduced by cellular metabolism. Briefly, alamar blue reagent (10 ul) was added to the culture medium and incubated for 1 h at 37° C. Fluorescence from resorufin (Ex/Em 530/590 nm) was detected using a microplate reader (SpectraMax iD3, Molecular Devices).

HK-2 cells [4] = test: Mitochondrial potential (TMRM) of cells at the scratch edge; assay type: cell-based, human; details: 10 nM, serum-free, 24 hours after scratch; for mitochondrial potential (red fluorescence) normalized to nuclear number, FIG. 25: compared to control
Source text: Rapidly dividing cells can need ATP to support the synthesis of important building blocks. Tissue injury can cause rapid mitochondrial depolarization that compromises ATP production and/or results in cell death. The loss of ATP can further impair cell proliferation and/or tissue repair. Mitochondrial potential can be monitored in the cells at the edge of the scratch area using the cell-permeable potential-dependent dye TMRM (tetramethylrhodamine methyl ester). TMRM can accumulate in negatively charged polarized mitochondria and can be detected as red fluorescence. To mimic the microenvironment of wounds in vitro, serum-free medium was used in the scratch assay. […] HK-2 cells were then incubated with 5 nM TMRM in DMEM without phenol red and incubated for 30 min. Cells were then covered with live cell image buffer and imaged using Nikon Eclipse Ti2 fluorescent microscope (20× objective).

HK-2 cells [5] = test: Cellular ATP in extreme starvation model (serum-free 5% DMEM in PBS, 3 days); assay type: cell-based, human; details: 10 nM
Method: ATP was measured using the ApoSENSOR ATP Bioluminescence Assay Kit (BioVision) according to manufacturer's protocol. This kit utilizes luciferase to catalyze the formation of light from ATP and luciferin. Briefly, cells were treated with 100 ul of Nuclear Releasing Buffer for 5 min at RT with gentle shaking. 10 ul of ATP Monitoring Enzyme was added to cell lysate, and luminescence was measured using a microplate reader (SpectraMax iD3, Molecular Device). ATP levels were normalized to the serum-free DMEM control group (arbitrarily set to 1.0).
The second model uses an extreme starvation model whereby HK-2 cells were cultured in 96-well plates in serum-free 5% DMEM in PBS (phosphate-buffered saline) for 3 days. Cells were treated with 10 nM free biotin or peptide-conjugated biotin molecules. All treatments were carried out with N=6 in each experiment.

[6] = tested on: HK-2 human renal epithelial cell monolayers; test: Cell proliferation at scratch edge (PCNA staining); assay type: cell-based; details: HK-2 cells, 10 nM, serum-free, 24 hours after scratch; for number of proliferating cells normalized to all nuclei, FIG. 21: compared to control or biotin
Source text: as §1, §2

HK-2 cells [7] = test: In vitro scratch assay (scratch area); assay type: cell-based, human; details: 10 nM; for scratch area after 24 hours, microscopic images FIG. 15: serum-free DMEM, 24 hours after mechanical scratch; for closure of the scratch area compared to control, FIG. 16 and FIG. 17 / effectiveness in reducing scratch area compared to free biotin, FIG. 16 and FIG. 17: serum-free, 24 hours
Method: (§4) Certain exemplary peptide-conjugated biotin molecules can accelerate wound healing in cell cultures. The in vitro scratch assay is an easy and well-developed method to measure cell proliferation and migration over a “wound area” in vitro. This assay involves creating a “scratch” in a cell monolayer with a pipette tip and then examining the rate at which cells proliferate and migrate to close the scratch.
3×10^5 cells were plated per well in 6-well plates in DMEM at 37° C. in a humidified incubator with 5% CO2 for one day prior to the experiment. To mimic the microenvironment of wounds in vitro, serum-free medium was used in the scratch assay. On the day of the scratch assay, the medium was replaced with serum-free DMEM, and a line scraped across the cell monolayer using a p1000 pipette tip. Cells were washed to remove cell debris and replaced with DMEM alone (control), or DMEM containing 10 nM biotin or peptide-conjugated biotin molecules.
(§5) The scratch area was examined immediately (day 0) using a Nikon Eclipse Ti2 fluorescence microscope. Six different field were captured for each sample using 4×objective. The scratch area (cell-free zone) was calculated using ImageJ software, an open-source Java image processing program inspired by NIH Image (National Institute of Health). The scratch area was re-examined after 24 hours (day 1), and the area was normalized to the area determined on day 0 for the same sample. All results were calculated as change from no-treatment control and averaged for the six fields.

ARPE-19 cells [8] = test: In vitro scratch assay (scratch area); assay type: cell-based, human
Source text: as §4, §5

[9] = tested on: ARPE-19 human retinal pigment epithelial cells; test: Biotin uptake by streptavidin-Alexa Fluor 594 fluorescence in ARPE-19 cells; details: 1 uM, 1-hour incubation, serum-free
Method: Cellular uptake and localization of peptide-conjugated biotin molecules were determined in HK-2 human renal epithelial cells and ARPE-19 human retinal pigment epithelial cells (ATCC, Manassas, VA). HK-2 cells were cultured in Dulbecco's Modified Eagle's Medium (DMEM) containing 1 g/L glucose and 10% fetal bovine serum (FBS), 100 units/ml penicillin and 100 ug/ml streptomycin. ARPE-19 cells were cultured in DMEM/F12 medium containing 1 g/L glucose and 10% fetal bovine serum (FBS), 100 units/ml penicillin and 100 ug/ml streptomycin. Cells were incubated in humidified incubator with 5% CO2 at 37° C. HK-2 cells and ARPE-19 cells were seeded in 35 mm dish at an initial density of 5×10^4 cells. FBS was removed from the culture medium for 3 days to deplete endogenous biotin in the cells. […]
Biotin uptake was determined using Streptavidin binding. […] By using Alexa Fluor 594-conjugated streptavidin, it is possible to visualize biotin uptake using fluorescence microscopy. […] Live cell image buffer was added and Alexa-594 fluorescence (Ex/Em=591/614 nm) and Hoechst fluorescence ([…]) was observed using the Nikon Eclipse Ti2 fluorescence microscope (100×oil objective). Ten random fields from each sample were quantified by NIS-Elements Imaging Software (Nikon) for streptavidin fluorescence and normalized to Hoechst fluorescence to account for number of cells per field.

ARPE-19 cells [10] = test: Cell number and viability after 30 days of serum deprivation; assay type: cell-based, human; details: 10 nM
Method: as §3
In the second model, ARPE-19 cells were grown in serum-free DMEM in the absence or presence of peptide-conjugated biotin molecules for 30 days. Serum-free media was supplemented with 10 nM of SPN12, SPN15 or SPN16 compounds (all at 10 nM) was replaced every 3 days. Culture medium was replaced every 3 days.

| SMILES | number of proliferating (PCNA-positive) cells at the edge of the scratch, images FIG. 22 [2] | number of cells with good mitochondrial potential (TMRM) at scratch edge, images FIG. 24 (HK-2 cells [4]) | mitochondrial potential (red fluorescence) normalized to nuclear number, FIG. 25 (HK-2 cells [4]) | number of proliferating cells normalized to all nuclei, FIG. 21 [6] | scratch area after 24 hours, microscopic images FIG. 15 (HK-2 cells [7]) | closure of the scratch area compared to control, FIG. 16 and FIG. 17 (HK-2 cells [7]) | effectiveness in reducing scratch area compared to free biotin, FIG. 16 and FIG. 17 (HK-2 cells [7]) | also measured |
| --- | --- | --- | --- | --- | --- | --- | --- | --- |
| Cc1cc(O)cc(C)c1C[C@H](NC(=O)[C@@H](CCCNC(=N)N)NC(=O)CCCC[C@@H]1SC[C@@H]2NC(=O)N[C@@H]21)C(=O)N[C@@H](CCCCN)C(=O)N[C@@H](Cc1ccccc1)C(N)=O [SPN05, D-Biotin-D-Arg-L-(2′6′-dimethylTyr)-L-Lys-L-Phe-NH2] (Biotin-[dR][Dmt]KF-NH2) |  |  |  |  |  |  |  | co-localization of biotin staining with COX4 staining (inner mitochondrial membrane), FIG. 6 [1]: co-localization |
| N=C(N)NCCC[C@@H](NC(=O)[C@@H](Cc1c[nH]c2ccccc12)NC(=O)CCCC[C@@H]1SC[C@@H]2NC(=O)N[C@@H]21)C(=O)N[C@H](Cc1c[nH]c2ccccc12)C(=O)N[C@H](CCCCN)C(=O)O [SPN08, D-Biotin-D-Trp-D-Arg-D-Trp-D-Lys-OH] (Biotin-[dW][dR][dW][dK]-OH) | increased the number of proliferating cells |  |  |  |  |  |  |  |
| N=C(N)NCCC[C@@H](NC(=O)[C@H](N)Cc1c[nH]c2ccccc12)C(=O)N[C@H](Cc1c[nH]c2ccccc12)C(=O)N[C@H](CCCCNC(=O)CCCC[C@@H]1SC[C@@H]2NC(=O)N[C@@H]21)C(=O)O [SPN09, D-Trp-D-Arg-D-Trp-D-Lys(biotinyl)-OH] (H-[dW][dR][dW][dK](Biotin)-OH; N-terminus assumed) | increased the number of proliferating cells |  |  |  |  |  |  |  |
| N=C(N)NCCC[C@H](NC(=O)[C@@H](N)Cc1c[nH]c2ccccc12)C(=O)N[C@@H](Cc1c[nH]c2ccccc12)C(=O)N[C@@H](CCCCNC(=O)CCCC[C@@H]1SC[C@@H]2NC(=O)N[C@@H]21)C(N)=O [SPN11, L-Trp-L-Arg-L-Trp-L-Lys(biotinyl)-NH2] (H-WRWK(Biotin)-NH2; N-terminus assumed) | increased the number of proliferating cells | increased the number of cells with good mitochondrial potential | significantly increased mitochondrial potential | doubled | almost completely closed | significantly accelerated the closure of the scratch area | twice as effective | improvement of cell viability in the absence of serum, FIG. 7 (HK-2 cells [3]): 35%; ATP content compared to free biotin under extreme starvation, FIG. 12 (HK-2 cells [5]): doubling; number of proliferating (PCNA-positive) cells at the edge of the scratch, images FIG. 20 ([6]; compared to free biotin): increased the number of proliferating cells |
| N=C(N)NCCC[C@@H](NC(=O)CCCC[C@@H]1SC[C@@H]2NC(=O)N[C@@H]21)C(=O)N[C@@H](Cc1ccc(O)cc1)C(=O)N[C@H](CCCNC(=N)N)C(=O)N[C@@H](Cc1ccccc1)C(=O)N[C@@H](CCCCNC(=O)CCCC[C@@H]1SC[C@@H]2NC(=O)N[C@@H]21)C(N)=O [SPN16, D-Biotin-D-Arg-L-Tyr-D-Arg-L-Phe-L-Lys(biotinyl)-NH2] (Biotin-[dR]Y[dR]FK(Biotin)-NH2) |  |  |  |  |  | significantly accelerated the closure of the scratch area | three times more effective | wound healing (scratch closure), FIG. 18 (ARPE-19 cells [8]): accelerated wound healing; intracellular streptavidin staining (cellular uptake of biotin), microscopic images FIG. 4 [9]: intense red staining with a perinuclear distribution; cell viability after serum deprivation compared to control, FIG. 9 (ARPE-19 cells [10]; 30 days of serum deprivation): doubled; cell number after prolonged serum deprivation, microscopic images FIG. 8 (ARPE-19 cells [10]; 30 days serum-free): increased cell number |
| O=C(O)CCCC[C@@H]1SC[C@@H]2NC(=O)N[C@@H]21 [biotin] | no effect | no effect | did not reach statistical significance | small and did not reach statistical significance | small effect on reducing scratch area | significantly accelerated the closure of the scratch area |  | increase of the percent of proliferating cells at the edge of the scratch, FIG. 23 ([2]; compared to control): without effect |
